Experimental data as given in US10669238B2, “Irreversible bruton's tyrosine kinase inhibitor” (HEFEI INSTITUTES OF PHYSICAL SCIENCE, CHINESE ACADEMY OF …, priority 2016, dated 2020).

These compounds were tested against BTK protein kinase (Homo sapiens, UniProt Q06187) (assay: In vitro enzymatic activity against BTK (ADP-Glo)). Details: compound with BTK 4 hours at room temperature; ATP 10 μM, 37° C. 1 hour; values given in μM.
Chain of BTK protein kinase (Q06187 whole entry): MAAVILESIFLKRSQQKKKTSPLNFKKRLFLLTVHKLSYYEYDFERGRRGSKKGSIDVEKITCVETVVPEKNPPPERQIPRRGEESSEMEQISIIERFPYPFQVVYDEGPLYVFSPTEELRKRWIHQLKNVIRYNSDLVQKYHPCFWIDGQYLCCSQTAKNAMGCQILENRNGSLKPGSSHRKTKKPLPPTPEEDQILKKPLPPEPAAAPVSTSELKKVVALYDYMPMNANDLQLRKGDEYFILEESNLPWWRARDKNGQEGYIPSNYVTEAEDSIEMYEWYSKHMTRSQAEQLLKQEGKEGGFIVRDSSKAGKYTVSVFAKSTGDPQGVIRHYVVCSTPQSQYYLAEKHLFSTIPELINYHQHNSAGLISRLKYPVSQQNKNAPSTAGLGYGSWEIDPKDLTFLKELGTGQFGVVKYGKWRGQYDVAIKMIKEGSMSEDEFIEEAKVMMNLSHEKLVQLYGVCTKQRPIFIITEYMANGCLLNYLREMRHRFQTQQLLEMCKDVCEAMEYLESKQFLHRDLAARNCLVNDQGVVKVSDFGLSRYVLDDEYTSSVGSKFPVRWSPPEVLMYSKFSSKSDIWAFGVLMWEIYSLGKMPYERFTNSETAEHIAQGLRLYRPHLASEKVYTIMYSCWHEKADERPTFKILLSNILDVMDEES
Type: biochemical
Method: In vitro enzymatic activity of the compounds against BTK was determined in a experimental assay of in vitro enzymatic activity using […] kit (purchased from Progema, USA).
9 μL of BTK protein kinase (at a concentration of 1.5 ng/μL) was used to react with compounds (1 μL) shown in the following table that were diluted three times in gradient at room temperature for 4 hours (the final concentration of the compound being 10 μM, 3 μM, 1 μM, 0.3 μM, 0.1 μM, 0.03 μM, 0.01 μM, 0.003 μM);
2 μL of ATP and 3 μL of the substrate Poly(4:1 Glu, Tyr)Peptide (Promega, USA) (the final concentrations being 10 μM and 0.2 μg/μL, respectively) were added to allow reaction at 37° C. for 1 hour;
5 μL of BTK kinase solution after reaction was taken and added into 5 μL of ADP-Glo™ (Promega, USA) reagent to allow reaction at room temperature for 40 mins so as to terminate the kinase reaction and exhaust the remaining ATP;
10 μL kinase detecting reagent was added to convert ADP to ATP, and newly synthesized ATP was detected using coupled luciferase/[…] reaction, then the IC50 values were calculated by using a plotting method based on the Envision reading.
In the case of C=CC(=O)Nc1ccc(NC(=O)c2ccc(C(C)(C)C)cc2)c(C)c1-c1cc(Nc2ccc(C(=O)N3CCOCC3)cc2)c(=O)n(C)c1 [Compound 24], the IC50 is reported as 1.77 µM.

Same assay, conditions: compound with BTK 4 hours at room temperature; ATP 10 μM, 37° C. 1 hour; values in nM
Compound C=CC(=O)Nc1cc(Nc2cc(-c3cccc(NC(=O)c4cc5c(s4)CCCC5)c3C)cn(C)c2=O)ccc1N1CCN(C)CC1 [Compound 75, N-(3-(5-((3-acrylamide-4-(4-methylpiperazin-1-yl)phenyl)amino)-1-methyl-6-oxo-1,6-dihydropyridin-3-yl)-2-methylphenyl)-4,5,6,7-tetrahydrobenzo[b]thiophene-2-carboxamide] has an IC50 of 0.007 µM. For CCC(=O)Nc1cc(Nc2cc(-c3cccc(NC(=O)c4ccc(C(C)(C)C)cc4)c3C)cn(C)c2=O)ccc1C(=O)N1CCNCC1 [Compound 41, N-(3-(5-((3-propanamide-4-(piperazin-1-carbonyl)phenyl)amino)-1-methyl-6-oxo-1,6-dihydropyridin-3-yl)-2-methylphenyl)-4-(tert-butyl)benzamide], the IC50 was 0.042 µM. C=CC(=O)Nc1cc(Nc2cc(-c3cccc(NC(=O)c4ccc(C(C)C)cc4)c3C)cn(C)c2=O)ccc1C(=O)N1CCOCC1 [Compound 64, N-(3-(5-((3-acrylamide-4-(morpholin-4-carbonyl)phenyl)amino)-1-methyl-6-oxo-1,6-dihydropyridin-3-yl)-2-methylphenyl)-4-isopropylbenzoylamide] showed an IC50 of 0.022 µM. Work on C=CC(=O)Nc1cc(Nc2cc(-c3cccc(NC(=O)c4cc5c(s4)CCCC5)c3C)cn(C)c2=O)ccc1N1CCC(N(C)C)CC1 [Compound 83, N-(3-(5-((3-acrylamide-4-(4-(dimethylamino)piperidin-1-yl)phenyl)amino)-1-methyl-6-oxo-1,6-dihydropyridin-3-yl)-2-methylphenyl)-4,5,6,7-tetrahydrobenzo[b]thiophene-2-carboxamide] yielded an IC50 of 0.0167 µM. C=CC(=O)Nc1cc(Nc2cc(-c3cccc(NC(=O)c4cc5c(s4)CCCC5)c3C)cn(C)c2=O)ccc1N1CCN(CC)CC1 [Compound 76, N-(3-(5-((3-acrylamide-4-(4-ethylpiperazin-1-yl)phenyl)amino)-1-methyl-6-oxo-1,6-dihydropyridin-3-yl)-2-methylphenyl)-4,5,6,7-tetrahydrobenzo[b]thiophene-2-carboxamide] showed an IC50 of 0.025 µM. Work on C#CC(=O)Nc1cc(C(=O)N2CCOCC2)ccc1Nc1cc(-c2cccc(NC(=O)c3ccc(C(C)(C)C)cc3)c2C)cn(C)c1=O [Compound 4, N-(3-(5-((2-propynamide-4-(morpholin-4-carbonyl)phenyl)amino)-1-methyl-6-oxo-1,6-dihydropyridin-3-yl)-2-methylphenyl)-4-(tert-butyl)benzamide] yielded an IC50 of 0.0326 µM. C=CC(=O)Nc1cc(Nc2cc(-c3cccc(NC(=O)c4cc5ccccc5s4)c3C)cn(C)c2=O)ccc1N1CCN(C)CC1 [Compound 81, N-(3-(5-((3-acrylamide-4-(4-methylpiperazin-1-yl)phenyl)amino)-1-methyl-6-oxo-1,6-dihydropyridin-3-yl)-2-methylphenyl)-benzo[b]thiophene-2-carboxamide] was tested, and the IC50 was 0.0289 µM. In the case of C=CC(=O)Nc1cc(Nc2cc(-c3cccc(NC(=O)c4ccc(C5CC5)cc4)c3C)cn(C)c2=O)ccc1N1CCN(C)CC1 [Compound 72, N-(3-(5-((3-acrylamide-4-(4-methylpiperazin-1-yl)phenyl)amino)-1-methyl-6-oxo-1,6-dihydropyridin-3-yl)-2-methylphenyl)-4-cyclopropylbenzoylamide], the IC50 is reported as 0.18 µM. Compound CCC(=O)Nc1cc(Nc2cc(-c3cccc(NC(=O)c4ccc(N(C)C)cc4)c3C)cn(C)c2=O)ccc1C(=O)N1CCOCC1 [Compound 37, N-(3-(5-((3-propanamide-4-(morpholin-4-carbonyl)phenyl)amino)-1-methyl-6-oxo-1,6-dihydropyridin-3-yl)-2-methylphenyl)-4-(dimethylamino)benzo] has an IC50 of 0.646 µM. C=CC(=O)Nc1cc(Nc2cc(-c3cccc(NC(=O)c4cc5c(s4)CCCC5)c3C)cn(C)c2=O)ccc1N1CCCC1 [Compound 80, N-(3-(5-((3-acrylamide-4-(pyrrolidin-1-yl)phenyl)amino)-1-methyl-6-oxo-1,6-dihydropyridin-3-yl)-2-methylphenyl)-4,5,6,7-tetrahydrobenzo[b]thiophene-2-carboxamide] gave an IC50 of 0.083 µM. C=CC(=O)Nc1cc(Nc2cc(-c3cccc(NC(=O)c4cc5ccccc5s4)c3C)cn(C)c2=O)ccc1-n1cccn1 [Compound 85, N-(3-(5-((3-acrylamide-4-(1H-pyrazol-1-yl)phenyl)amino)-1-methyl-6-oxo-1,6-dihydropyridin-3-yl)-2-methylphenyl)benzo[b]thiophene-2-carboxamide] was tested, and the IC50 was 0.13 µM. Compound C=CC(=O)Nc1cc(Nc2cc(-c3cccc(NC(=O)c4cc5ccccc5s4)c3C)cn(C)c2=O)ccc1N1CCC(N(C)C)CC1 [Compound 84, N-(3-(5-((3-acrylamide-4-(4-(dimethylamino)piperidin-1-yl)phenyl)amino)-1-methyl-6-oxo-1,6-dihydropyridin-3-yl)-2-methylphenyl)benzo[b]thiophene-2-carboxamide] has an IC50 of 0.0078 µM. With C=CC(=O)Nc1cc(Nc2cc(-c3cccc(NC(=O)c4ccc(C)c(C(F)(F)F)c4)c3C)cn(C)c2=O)ccc1C(=O)N1CCOCC1 [Compound 63, N-(3-(5-((3-acrylamide-4-(morpholin-4-carbonyl)phenyl)amino)-1-methyl-6-oxo-1,6-dihydropyridin-3-yl)-2-methylphenyl)-4-methyl-3-(trifluoromethyl)benzoylamide] the IC50 was 0.8 µM. Work on C=CC(=O)Nc1cc(Nc2cc(-c3cccc(NC(=O)c4ccc(C)s4)c3C)cn(C)c2=O)ccc1C(=O)N1CCOCC1 [Compound 71, N-(3-(5-((3-acrylamide-4-(morpholin-4-carbonyl)phenyl)amino)-1-methyl-6-oxo-1,6-dihydropyridin-3-yl)-2-methylphenyl)-5-methylthiophene-2-carboxamide] yielded an IC50 of 0.03 µM. C=CC(=O)Nc1cc(Nc2cc(-c3cccc(NC(=O)c4ccc(C5CC5)cc4)c3C)cn(C)c2=O)ccc1C(=O)N1CCOCC1 [Compound 66, N-(3-(5-((3-acrylamide-4-(morpholin-4-carbonyl)phenyl)amino)-1-methyl-6-oxo-1,6-dihydropyridin-3-yl)-2-methylphenyl)-4-cyclopropylbenzoylamide] was tested, and the IC50 was 0.18 µM. C=CC(=O)Nc1cc(Nc2cc(-c3cccc(NC(=O)c4ccc(N(C)C)cc4)c3C)cn(C)c2=O)ccc1C(=O)N1CCC(O)CC1 [Compound 56, N-(3-(5-((3-acrylamide-4-(4-hydroxypiperdin-1-carbonyl)phenyl)amino)-1-methyl-6-oxo-1,6-dihydropyridin-3-yl)-2-methylphenyl)-4-(dimethylamino)benzoylamide] showed an IC50 of 0.124 µM. For C=CC(=O)Nc1cc(Nc2cc(-c3cccc(NC(=O)c4cc5c(s4)CCCC5)c3C)cn(C)c2=O)ccc1N1CCN(C(C)C)CC1 [Compound 89, N-(3-(5-((3-acrylamide-4-(4-isopropylpiperazin-1-yl)phenyl)amino)-1-methyl-6-oxo-1,6-dihydropyridin-3-yl)-2-methylphenyl)-4,5,6,7-tetrahydrobenzo[b]thiophene-2-carboxamide], the IC50 was 0.0231 µM. For C=CC(=O)Nc1cc(Nc2cc(-c3cccc(NC(=O)c4cc5c(s4)CCCC5)c3C)cn(C)c2=O)ccc1C(=O)N1CCCC1 [Compound 69, N-(3-(5-((3-acrylamide-4-(pyrrolidin-1-carbonyl)phenyl)amino)-1-methyl-6-oxo-1,6-dihydropyridin-3-yl)-2-methylphenyl)-4,5,6,7-tetrahydrobenzo[b]thiophene-2-carboxamide], the IC50 was 0.0836 µM. For C=CC(=O)Nc1cc(Nc2cc(-c3cccc(NC(=O)c4ccc(N(C)C)cc4)c3C)cn(C)c2=O)ccc1C(=O)N1CCCCC1 [Compound 50, N-(3-(5-((3-acrylamide-4-(piperidin-1-carbonyl)phenyl)amino)-1-methyl-6-oxo-1,6-dihydropyridin-3-yl)-2-methylphenyl)-4-(dimethylamino)benzoylamide], the IC50 was 0.091 µM. C=CC(=O)Nc1cc(Nc2cc(-c3cccc(NC(=O)c4cc(C)cs4)c3C)cn(C)c2=O)ccc1C(=O)N1CCOCC1 [Compound 70, N-(3-(5-((3-acrylamide-4-(morpholin-4-carbonyl)phenyl)amino)-1-methyl-6-oxo-1,6-dihydropyridin-3-yl)-2-methylphenyl)-4-methylthiophene-2-carboxamide] was tested, and the IC50 was 0.114 µM. Work on C=CC(=O)Nc1cc(Nc2cc(-c3cccc(NC(=O)c4cc5ccccc5s4)c3C)cn(C)c2=O)ccc1C(=O)N1CCOCC1 [Compound 68, N-(3-(5-((3-acrylamide-4-(morpholin-4-carbonyl)phenyl)amino)-1-methyl-6-oxo-1,6-dihydropyridin-3-yl)-2-methylphenyl)benzo[b]thiophene-2-carboxamide] yielded an IC50 of 0.022 µM. For C=CC(=O)Nc1cc(Nc2cc(-c3cccc(NC(=O)c4cc5ccccc5s4)c3C)cn(C)c2=O)ccc1N(C)C [Compound 93, N-(3-(5-((3-acrylamide-4-(dimethylamino)phenyl)amino)-1-methyl-6-oxo-1,6-dihydropyridin-3-yl)-2-methylphenyl)benzo[b]thiophene-2-carboxamide], the IC50 was 0.0154 µM. C=CC(=O)Nc1cc(Nc2cc(-c3cccc(NC(=O)c4cc5c(s4)CCCC5)c3C)cn(C)c2=O)ccc1N1CCOCC1 [Compound 78, N-(3-(5-((3-acrylamide-4-morpholinophenyl)amino)-1-methyl-6-oxo-1,6-dihydropyridin-3-yl)-2-methylphenyl)4,5,6,7-tetrahydrobenzo[b]thiophene-2-carboxamide] showed an IC50 of 0.119 µM.
